Data as given in patent US20260137653A1, “USE OF HEROMBOPAG OR PHARMACEUTICALLY ACCEPTABLE SALT THEREOF IN TREATMENT OF TUMOR CHEMOTHERAPY-INDUCED THROMBOCYTOPENIA” (JIANGSU HENGRUI PHARMACEUTICALS CO., LTD., priority 2022, published 2026).

Tested on: patients with chemotherapy-induced thrombocytopenia (platelet count <75×10^9/L, chemotherapy delay ≥1 week)
Test: Randomized placebo-controlled clinical study of herombopag olamine tablets in thrombocytopenia induced by chemotherapy for malignant tumors (Example 1)
Assay type: in vivo, human
Description: Investigational drug: herombopag olamine tablets, 2.5 mg/tablet, manufactured and provided by Jiangsu Hengrui Pharmaceuticals Co., Ltd.
Control drug: herombopag olamine simulated tablets (placebo), 2.5 mg/tablet, identical in shape, color, weight, etc. to the herombopag olamine tablets, manufactured and provided by Jiangsu Hengrui Pharmaceuticals Co., Ltd.
Patients must meet all of the following inclusion criteria to be eligible for the study: • 1. Age between 18 years and 75 years (inclusive), regardless of gender. • 2. Pathologically or cytologically confirmed diagnosis of malignant tumors, including lung cancer (small cell or non-small cell), breast cancer, bladder cancer, etc. • 3. The subject is currently receiving a chemotherapy regimen on a 21-day cycle (excluding other chemotherapy cycle lengths) and requires the use of one or more chemotherapeutic drugs, such as: • Antimetabolites, including gemcitabine, etc.; • Platinum-based agents, including carboplatin, nedaplatin, cisplatin, lobaplatin, etc.; • Anthracyclines, including doxorubicin, daunorubicin, epirubicin, etc.; • Alkylating agents, including cyclophosphamide, ifosfamide, etc. • 4. The subject experiences a delay of ≥1 week in chemotherapy relative to the expected time due to thrombocytopenia, and the platelet count remains <75×10^9/L. • 5. Physical fitness status ECOG score of 0-1. • 6. The subject has an expected survival period of ≥12 weeks at the time of screening and is able to receive at least 2 or more cycles of the current chemotherapy regimen. • 7. Subjects of childbearing potential must agree to use reliable methods of contraception throughout the study (including male or female condoms, contraceptive foams, contraceptive gels, contraceptive films, contraceptive creams, contraceptive suppositories, abstinence, placement of intrauterine devices, etc.). Female subjects who have undergone a hysterectomy, bilateral salpingectomy, or bilateral tubal ligation or have been postmenopausal for more than 1 year and male subjects who have undergone a bilateral vasectomy or ligation are excluded. • 8. The subject is willing to participate in the study, can provide written informed consent, and has good compliance.
Patients meeting any one of the following criteria are excluded from the study: • 1. Screening or baseline platelet count of <30×10^9/L. • 2. Platelet count of <75×10^9/L prior to the first dose of chemotherapy. • 3. Hematopoietic diseases other than chemotherapy-induced thrombocytopenia (CIT), including but not limited to leukemia, primary immune thrombocytopenia, myeloproliferative diseases, multiple myeloma, and myelodysplastic syndrome. • 4. […]

With `CC1=NN(c2ccc3c(c2)CCCC3)C(=O)/C1=N\Nc1cccc(-c2ccc(C(=O)O)o2)c1O` [herombopag olamine tablets, herombopag] the “OR value for achieving the primary study endpoint, investigational group vs placebo group” value (95% CI 2.82-38.65, p=0.0001) was 10.44, the “proportion of subjects in which the drug is therapeutically effective (patients achieving the primary study endpoint)” value (investigational group n=28 (17/28), starting dose 7.5 mg once daily oral, two consecutive 21-day chemotherapy cycles, 95% CI 40.6-78.5, placebo 4/31 (12.9%)) was 60.7% and the “incidence of adverse events” value (investigational group vs placebo group) was “comparable between the investigational group and the placebo group”. For the same compound, the “grade 3 or higher grade treatment-related adverse events or treatment-related serious adverse events” value (investigational group, starting dose 7.5 mg once daily) was “No grade 3 or higher grade treatment-related adverse events or treatment-related serious adverse events were observed”.
